In ChEMBL document CHEMBL1149950, “The synthesis and anti-hiv activity of pyrimidine dioxolanyl nucleosides” (Bioorg Med Chem Lett, 1993):

How the values were obtained:
[1] = test system: MT4; test: Tested in vitro for the cytotoxic activity against uninfected MT-4 cells; type: functional, cell-based; conditions: Homo sapiens
[2] = Tested in vitro for the cytotoxic activity against uninfected human peripheral blood mononuclear (PBM) cells; type: functional
[3] = Tested in vitro for the antiviral assay in mitogen stimulated human peripheral blood mononuclear (PBM) cells infected with HIV-1 (strain LAV); type: functional
[4] = test system: Vero; test: Tested in vitro for the cytotoxic activity against uninfected Vero cells; type: functional, cell-based; conditions: Chlorocebus sabaeus
[5] = test system: CCRF-CEM; test: Tested in vitro for the cytotoxic activity against uninfected CEM cells; type: functional, cell-based; conditions: Homo sapiens
[6] = test system: MT4; test: Tested in vitro for the cytotoxic activity against uninfected MT-4 cells at 200 uM; type: functional; conditions: Homo sapiens

SMILES | EC50 [3] [µM] | IC50 [1] [µM] | IC50 [2] [µM] | IC50 [4] [µM] | IC50 [5] [µM] | inhibition at 200 µM [6] [%]
O=c1ccn([C@H]2CO[C@@H](CO)O2)c(=O)[nH]1 | 57.5 | > 200 | > 100 | > 100 |  | 
CCc1cn(C2COC(CO)O2)c(=O)[nH]c1=O (stereo not drawn) | > 100 |  | > 100 | > 100 |  | 30
O=c1[nH]c(=O)n(C2COC(CO)O2)cc1I (stereo not drawn) | > 100 | > 200 | > 100 | > 100 |  | 
O=c1[nH]c(=O)n(C2COC(CO)O2)cc1C(F)(F)F (stereo not drawn) | 93 | > 200 | > 100 | > 100 |  | 
O=c1[nH]c(=O)n([C@H]2CO[C@@H](CO)O2)cc1F | 28.5 |  | > 100 | > 100 | > 100 | 

These reach a lower EC50 [3]. Values come first.

EC50 [3] [µM] | SMILES | IC50 [1] [µM] | IC50 [2] [µM] | IC50 [4] [µM] | IC50 [5] [µM] | inhibition at 200 µM [6] [%]
2.8 | O=c1[nH]c(=O)n([C@H]2CO[C@@H](CO)O2)cc1Br | > 200 | > 100 | > 100 |  | 
1.7 | O=c1[nH]c(=O)n(C2COC(CO)O2)cc1Cl (stereo not drawn) | > 200 | > 100 | > 100 |  | 
0.005 | Nc1ccn([C@H]2CO[C@@H](CO)O2)c(=O)n1 |  | > 100 | 0.17 | 0.08 | 66
